Test results: patent US20140072654A1, “CANCER WITH METABOLIC THERAPY AND HYPERBARIC OXYGEN” (priority 2011, published 2014)
“And” between values parts separate entries of the source, which are not always exact repeats. Equal values may be shown once. “Also recorded” adds a separate entry of the source.

Experiments:
[1] = rat; cited from earlier work
[2] = test system: primary cultured cortex neurons; assay: Superoxide anion production (DHE fluorescence) in neurons treated with HBO or amyloid beta; assay type: cell-based, rat; settings: 60 min, 5 ATA O2; 2 mM ketones
Protocol: Effect of ketones on superoxide production in neurons treated with Aβ1-42 and HBO and cell viability of U87MG cells was examined Primary dissociated neuronal cultures of the hippocampus and cortex were acquired from Brain Bits LLC, to increase time efficiency and to minimize cost associated with purchasing rats. Hippocampal or cortical tissue from Brain Bits (shipped in Hibernate®) were enzymatically and mechanically dissociated via pipette trituration. Neurons were plated on 12 mm glass coverslips and allowed to adhere for 1-2 hrs in an incubator maintained at 9-20% O2 in a humidified atmosphere. Cultures were maintained in media purchased from Brain Bits, including NbActiv1® and NbActive4. […]
Presence of intracellular ROS is measured by detection of superoxide anion using Dihydroethidium (DHE). […] Cells were washed in PBS and then visualized using fluorescent microscopy or quantified using spectrophotometry. […]
Acquisition and statistical analyses of fluorescence imaging was performed as previously reported (D'Agostino, 2007; Filosa, 2002; Ritucci, 1996; Ritucci, 1997; Ritucci, 1998; Crowe, 1995; Weinlich, 1998; Inglefield, 1998; Inglefield, 1999). Average fluorescence intensity (FI) for each cell is calculated as the percent change in fluorescence from baseline, […], where FIb is the basal fluorescence defined by the two images preceding the experimental recordings. […]

[3] = Acute ketosis with supplementation in healthy VM/Dk mice (blood glucose, blood βHB, urine AcAc after feeding); assay type: in vivo, mouse
Protocol: FIG. 34(A)-(C) are graphs showing effect of ketone supplementation on blood glucose, blood βHB, urine AcAc, and body weight in mice. (A-C) blood glucose; (B) blood levels of ketones; and (C) urine AcAc of healthy VM/Dk mice 0-12 hours after feeding following 8 hour fast. […] Error bars represent ±SEM.

[4] = Blood glucose, blood βHB and body weight of VM-M3 survival study mice
[5] = test system: VM-M3 metastatic cancer; assay: Survival time in VM-M3 mouse model of metastatic cancer; assay type: in vivo
[6] = test system: rats exposed to hyperbaric oxygen (5 ATA O2); assay: CNS oxygen toxicity: latency to seizure (EEG) in rats in hyperbaric oxygen; assay type: in vivo, rat; settings: rats; for effect on latency to seizure / CNS-OT (words): 5 ATA O2, ~3 ml (~10 g/kg) gavage 30 min before HBO2; for increase in latency to seizure (LS) compared to control: 5 ATA O2, ~10 g/kg intragastric 30 min before dive, control water
Text: Hyperbaric Chamber HBO2 system consisted of two main elements: 1) a plexiglass chamber (˜3 liter capacity, Diamond Box, Buxco, Electronics Inc., model PLY3114), that housed the rat during the experiment, and 2) a hyperbaric chamber (Reimers System Inc.—7.8 ATA MWP), that contained the plexiglass chamber and functioned as the pressure vessel. Both chambers were connected to an air compressor (oil-less rotary scroll compressor—model DK6086, Powerex).
During each experiment (hyperbaric hyperoxia), both the main chamber and the animal chamber were filled with air (dive profile). Rats were placed into the plexiglass chamber and allowed ten minutes to acclimate, at which time the plexiglass chamber was flushed with 100% 02. The animal was then allowed 15 minutes to acclimate before both chambers were compressed to 5 ATA (58.8 PSIG) at a rate of 0.7 ATA/min. The outer chamber was pressurized using air (capacity ˜205 liters) to minimize the risk of an electrical-induced fire. Each experiment was visually monitored via a live camera. LS was calculated from the moment at which the internal and the external chambers reached 5 ATA until the onset of convulsions, identified as high-amplitude, high frequency spikes lasting 10 to 30 sec, followed by polyspikes and wave formation concurrent with tonic-clonic motions of forelimbs and head. After the onset of seizures, the plexiglass chamber was flushed with air to quickly terminate seizure, and both chambers decompressed to sea level. Decompression rate was 1 ATA/min. Rats were then allowed a 15 min recovery period in air at 1 ATA before being removed from the chamber.
The radiotelemetry system consisted of an implantable 4ET radio-transmitter able to amplify and broadcast signals via a receiver (DSI PhysioTel, model RPC-2) connected to an acquisition interface unit (ACQ 7700 Ponemah) via electrical penetrations in the wall of the hyperbaric chamber. The acquisition interface unit was connected to a computer for real time data collection and storage. The same acquisition unit also recorded chamber pressure and temperature, which were measured, respectively, by […] directly connected to the acquisition system via BNC (Bayonet Neill-Concelman) cables.
Anticonvulsant effect of supplemental ketones was tested in rats exposed to hyperbaric oxygen (5 ATA O2). The effects of ketone esters (KEs) in preventing CNS-OT in rats were assessed before, during and after HBO2 exposure by measuring various parameters.
Adult male Sprague-Dawley rats (n=60) rats (300-450 grams; 3 to 6 month old) were obtained from Harlan, anesthetized in 3-5% isoflurane (in 02) and implanted with a 4ET radio-transmitter (Data Sciences International, DSI) using sterile surgical technique. The rat chamber was ventilated with pure O2 while the hyperbaric chamber, containing the radio-receiver (DSI), was pressurized in parallel with air to 5 atmospheres absolute (ATA). One pair of leads (positive and negative poles) was implanted in the costal diaphragm at the junction with the abdominal wall for diaphragmatic electromyogram (dEMG) signals, one pair of electrodes was inserted in the pectoral muscle to acquire electrocardiogram (ECG) data, and two pairs of wires were embedded in the skull between Bregma and Lambda, with one lead on either side of midline for each pair (EEG recordings). The EMG wires were not inserted into crural diaphragmatic muscle because of the high risk of pneumothorax due to the thinness of the muscle (419 to 630 μm). 4ET radio-transmitters also monitored core body temperature and physical activity. Rats were weighed immediately before surgery and subsequently once every 7 days, just prior to the weekly exposures to HBO2. After surgery, every animal recovered for ≧1 week. The rats were food (not water) deprived for 18 hours prior to the start of the experiment.
In each case animals were gavaged about 30 minutes prior to diving. […]

[7] = Blood ketones and glucose after oral gavage in rats; assay type: in vivo, rat; settings: for duration of elevation of blood ketones: single oral/intragastric administration; for effect on blood glucose: over 4 hrs, relative to water
Protocol: Whole blood samples (10 μl) were acquired for analysis of glucose and BHB utilizing a commercially available glucose/ketone monitoring system (Nova Max® Plus) at time 0, 30, 60, 120, 180 and 240 min. In addition, heparinized blood samples (200 μl) were collected into Eppendorf tubes at time 0, 30, 60, 120, 180 and 240 min. Samples were processed for the detection and quantification of BHB, AcAc, and acetone. Briefly, samples were chilled on ice for 30 s, centrifuged in a micro-centrifuge (13,000 G) for 3-5 min and plasma (>100 μl), treated with reducing reagent of cold 0.2M sodium borodeuteride (NaBD4; Sigma, 205591, CAS 15681-89-7) dissolved in 0.1M NaOH (8.4 mg NaBD4 in 1 ml of 0.1M NaOH) and then immediately frozen on dry ice before storing at −80° C. Acetone was analyzed at the 60 minute time point, which was the predicted peak of blood AcAc levels (Desrochers et al. 1995). 300 μl of whole blood were collected in addition to the above collections, stabilized with cold 0.2M NaBD4, and then immediately frozen on dry ice. Samples were stored at −80° C. until analyzed for ketones. Internal standards of [^2H6]BHB or [^2H8]isopropanol were added to the treated plasma or blood samples (50 μl or 15 μl) and the BHB, AcAc (as M+1 of BHB) or acetone (as 2-propanol) metabolites were analyzed by gas chromatography-mass spectrometry (GC-MS) using an Agilent 5973 mass spectrometer, linked to a 6890 gas chromatograph equipped with an autosampler. Briefly, GC-MS conditions were either EI or CI mode (electron or chemical ionization mode); the samples were detected by selected ion monitoring as the BHB- and AcAc-trimethylsilyl derivatives (EI) or the derivative of acetone-pentafluorobenzoyl (CI).
KE and BD. […] Blood was collected and processed as described in the previous example.
Ketone measurements were taken at 30, 60, 120, 180 and 240 minutes. Blood plasma was treated with sodium borodeuteride (NaB2H4) to stabilize ketone concentration and then assayed by GC-MS. The rapid rise relating to blood ketones from BD-AcAc2 is due primarily from rapid desterfication in blood and tissues.

[8] = test system: VM-M3/Fluc tumors; assay: Tumor bioluminescence in VM-M3/Fluc mice; assay type: in vivo, mouse
[9] = rats
[10] = single oral administration ~10 g/kg

In the case of CC(C)=O [Acetone], the LD50 [1] is given as > 5000 mg/kg.

In the case of Cc1ccccc1NC(=N)Nc1ccccc1C [DTG, 1,3,-di-o-tolylguanidine], the “effect on superoxide anion production under hyperoxia” value [2] is reported as “prevented the hyperoxia-induced increase in superoxide production”.

For CC(=O)CC(=O)OCCC(C)OC(=O)CC(C)=O (stereo not drawn) [KE, R,S-1,3-butanediol acetoacetate diester], the “time after feeding to significant βHB elevation” value ([3]; after 8 hour fast) was 4 h, the “ketone bodies elevated, βHB and AcAc” value ([3]; blood βHB and urine AcAc) was “elevated both βHB and AcAc” and the “time for which blood glucose was significantly lowered” value ([3]; standard chow with ketone supplementation after 8 hour fast) was 4 h. The “blood glucose vs controls” value [4] was “lower blood glucose”, the “blood ketones (βHB) vs controls” value [4] was “elevated blood βHB” and the “increase in mean survival time” value ([5]; Example 5, compared to controls) was “approximately 22 days”. For the same molecule, the “Mean survival” value ([5]; Example 5, supplemental ketones, control (SD) 31.2) was 52.8 days, the “% increase in survival time” value ([5]; Example 5, vs control (SD)) was 69% and 69.2* % and the “effect on latency to seizure / CNS-OT (words)” value ([6]; listed as 1,3-BD AcAc diester) was “delays CNS-OT”. The “effect on latency to seizure / CNS-OT (words)” value ([6]; listed as BD-AcAc2) was “most effective KE against CNS-OT; also recorded: significantly increased the latency time to seizure”, the “increase in latency to seizure (LS) compared to control” value (from here on “increase in latency to seizure (LS)”) [6] was 574±115% and 574±116% and the “increase in latency to seizure (LS)” value ([6]; listed as BD-AcAc2) was > 570%. The “increase in latency to seizure (LS)” value ([6]; listed as dKE) was 570%, the “total ketones about 30 minutes after gavage” value ([7]; 10 g/kg gavage) was > 5 mM and the “blood AcAc” value [7, 10] was > 3 mM. The “blood BHB” value [7, 10] was > 3 mM, the “sustained elevation of total ketones” value ([7]; single oral administration, for over 4 hrs) was > 6 mM and the “duration of elevation of blood ketones” value [7] was 4 h and > 4 h. For the same molecule, the “duration of elevation of blood ketones” value ([7]; listed as BD-AcAc2) was “over 4 h”, the blood acetone ([7]; within about 60 minutes after single oral administration) was ~0.7 mM and the “blood AcAc level” value ([7]; ~10 g/kg gavage) was “increased significantly more; also recorded: significant increase in BHB and AcAc at 30 minutes”. For the same molecule, the “blood acetone level” value ([7]; ~10 g/kg gavage, 60 minutes) was “significantly higher at 60 minutes”, the “effect on blood glucose” value ([7]; ~10 g/kg gavage) was “no significant effect on blood glucose levels” and the “effect on blood glucose” value ([7]; ~10 g/kg gavage, listed as BD-AcAc2) was “does not elevate blood glucose”. For the same molecule, the “blood BHB level (words)” value ([7]; ~10 g/kg gavage, vs control water) was “significant increase in BHB and AcAc at 30 minutes”, the “tumor growth / bioluminescence” value ([8]; VM-M3 mice vs controls) was “drastically reduced tumor progression” and the “whole body tumor bioluminescence (ROI), representative animal” value ([8]; day 21 after tumor cell inoculation) was 1.536×10^6. The “blood pH change, mild nonpathological acidosis (FIG. 25)” value [9] was “from 7.45 to 7.35”, the “decrease of blood pH compared to control after about 30 minutes” value ([9]; control pH ~7.5, mean) was 0.05 and the “decrease of blood pH compared to control after about one hour” value ([9]; control pH ~7.5, mean) was 0.1. The “increase in blood pO2 levels” value ([9]; sustained) was “approximately 30%”.
